# Assay results published in ChEMBL document CHEMBL5724914, “Linking interpersonal differences in gut microbiota composition and drug biotransformation activity” (2024).
# Experiment: (§1) The drug is tested on WLS-039 corresponding to human gut metagenome with ENA study accession number: PRJEB37062 and ENA sample accession number: ERS12561746 for biotransformation under anaerobic condition. The drug concentrations were measured over 9 timepoints collected between 0 and 24 hours of incubation by liquid-chromatography-coupled mass spectrometry (LC–MS)
# Settings: 2 µM
# Note: call rule not given here.
row,Bacterial Biotransformation,SMILES
1,Compound metabolized,CCCc1nc2c(C)cc(-c3nc4ccccc4n3C)cc2n1Cc1ccc(-c2ccccc2C(=O)O)cc1
2,Compound metabolized,CCN(CC)CCOC(=O)C(Cc1cccc2ccccc12)CC1CCCO1.O=C(O)C(=O)O (stereo not given) [NAFRONYL OXALATE]

# Experiment: as §1, with “WLS-010” for “WLS-039”, “ERS12561743” for “ERS12561746”
# Settings: 2 µM
row,Bacterial Biotransformation,SMILES
1,Compound metabolized,CCCc1nc2c(C)cc(-c3nc4ccccc4n3C)cc2n1Cc1ccc(-c2ccccc2C(=O)O)cc1
2,Compound metabolized,CCN(CC)CCOC(=O)C(Cc1cccc2ccccc12)CC1CCCO1.O=C(O)C(=O)O (stereo not given) [NAFRONYL OXALATE]

# Experiment: as §1, with “WLS-027” for “WLS-039”, “ERS12561744” for “ERS12561746”
# Settings: 2 µM
row,Bacterial Biotransformation,SMILES
1,Compound metabolized,CCCc1nc2c(C)cc(-c3nc4ccccc4n3C)cc2n1Cc1ccc(-c2ccccc2C(=O)O)cc1
2,Compound metabolized,CCN(CC)CCOC(=O)C(Cc1cccc2ccccc12)CC1CCCO1.O=C(O)C(=O)O (stereo not given) [NAFRONYL OXALATE]

# Settings: human gut metagenome, 24 h, 2 µM
row,Bacterial Biotransformation,SMILES
1,Compound metabolized,CCCc1nc2c(C)cc(-c3nc4ccccc4n3C)cc2n1Cc1ccc(-c2ccccc2C(=O)O)cc1
2,Compound NOT metabolized,CCN(CC)CCOC(=O)C(Cc1cccc2ccccc12)CC1CCCO1.O=C(O)C(=O)O (stereo not given) [NAFRONYL OXALATE]

# Settings: human gut metagenome, 24 h, 2 µM
# Remark: another data set of the same source
row,Bacterial Biotransformation,SMILES
1,Compound metabolized,CCCc1nc2c(C)cc(-c3nc4ccccc4n3C)cc2n1Cc1ccc(-c2ccccc2C(=O)O)cc1
2,Compound NOT metabolized,CCN(CC)CCOC(=O)C(Cc1cccc2ccccc12)CC1CCCO1.O=C(O)C(=O)O (stereo not given) [NAFRONYL OXALATE]

# Settings: human gut metagenome, 24 h, 2 µM
# Remark: another data set of the same source
row,Bacterial Biotransformation,SMILES
1,Compound metabolized,CCCc1nc2c(C)cc(-c3nc4ccccc4n3C)cc2n1Cc1ccc(-c2ccccc2C(=O)O)cc1
2,Compound NOT metabolized,CCN(CC)CCOC(=O)C(Cc1cccc2ccccc12)CC1CCCO1.O=C(O)C(=O)O (stereo not given) [NAFRONYL OXALATE]

# Settings: human gut metagenome, 24 h, 2 µM
# Remark: another data set of the same source
row,Bacterial Biotransformation,SMILES
1,Compound metabolized,CCCc1nc2c(C)cc(-c3nc4ccccc4n3C)cc2n1Cc1ccc(-c2ccccc2C(=O)O)cc1
2,Compound metabolized,CCN(CC)CCOC(=O)C(Cc1cccc2ccccc12)CC1CCCO1.O=C(O)C(=O)O (stereo not given) [NAFRONYL OXALATE]

# Experiment: as §1, with “Z-022” for “WLS-039”, “mouse” for “human”, “ERS12561821” for “ERS12561746”
# Settings: 2 µM
row,Bacterial Biotransformation,SMILES
1,Compound metabolized,CCCc1nc2c(C)cc(-c3nc4ccccc4n3C)cc2n1Cc1ccc(-c2ccccc2C(=O)O)cc1
2,Compound metabolized,CCN(CC)CCOC(=O)C(Cc1cccc2ccccc12)CC1CCCO1.O=C(O)C(=O)O (stereo not given) [NAFRONYL OXALATE]

# Settings: human gut metagenome, 24 h, 2 µM
# Remark: another data set of the same source
row,Bacterial Biotransformation,SMILES
1,Compound metabolized,CCCc1nc2c(C)cc(-c3nc4ccccc4n3C)cc2n1Cc1ccc(-c2ccccc2C(=O)O)cc1
2,Compound metabolized,CCN(CC)CCOC(=O)C(Cc1cccc2ccccc12)CC1CCCO1.O=C(O)C(=O)O (stereo not given) [NAFRONYL OXALATE]

# Experiment: as §1, with “WLS-098” for “WLS-039”, “ERS12561754” for “ERS12561746”
# Settings: 2 µM
row,Bacterial Biotransformation,SMILES
1,Compound metabolized,CCCc1nc2c(C)cc(-c3nc4ccccc4n3C)cc2n1Cc1ccc(-c2ccccc2C(=O)O)cc1
2,Compound metabolized,CCN(CC)CCOC(=O)C(Cc1cccc2ccccc12)CC1CCCO1.O=C(O)C(=O)O (stereo not given) [NAFRONYL OXALATE]

# Settings: human gut metagenome, 24 h, 2 µM
# Remark: another data set of the same source
row,Bacterial Biotransformation,SMILES
1,Compound metabolized,CCCc1nc2c(C)cc(-c3nc4ccccc4n3C)cc2n1Cc1ccc(-c2ccccc2C(=O)O)cc1
2,Compound metabolized,CCN(CC)CCOC(=O)C(Cc1cccc2ccccc12)CC1CCCO1.O=C(O)C(=O)O (stereo not given) [NAFRONYL OXALATE]

# Experiment: as §1, with “WLS-052” for “WLS-039”, “ERS12561747” for “ERS12561746”
# Settings: 2 µM
row,Bacterial Biotransformation,SMILES
1,Compound metabolized,CCCc1nc2c(C)cc(-c3nc4ccccc4n3C)cc2n1Cc1ccc(-c2ccccc2C(=O)O)cc1
2,Compound metabolized,CCN(CC)CCOC(=O)C(Cc1cccc2ccccc12)CC1CCCO1.O=C(O)C(=O)O (stereo not given) [NAFRONYL OXALATE]

# Experiment: as §1, with “Z-006” for “WLS-039”, “mouse” for “human”, “ERS12561806” for “ERS12561746”
# Settings: 2 µM
row,Bacterial Biotransformation,SMILES
1,Compound metabolized,CCCc1nc2c(C)cc(-c3nc4ccccc4n3C)cc2n1Cc1ccc(-c2ccccc2C(=O)O)cc1
2,Compound metabolized,CCN(CC)CCOC(=O)C(Cc1cccc2ccccc12)CC1CCCO1.O=C(O)C(=O)O (stereo not given) [NAFRONYL OXALATE]

# Experiment: as §1, with “Z-023” for “WLS-039”, “to” for “to human gut”, “ERS12561822” for “ERS12561746”
# Settings: 2 µM
row,Bacterial Biotransformation,SMILES
1,Compound metabolized,CCCc1nc2c(C)cc(-c3nc4ccccc4n3C)cc2n1Cc1ccc(-c2ccccc2C(=O)O)cc1
2,Compound metabolized,CCN(CC)CCOC(=O)C(Cc1cccc2ccccc12)CC1CCCO1.O=C(O)C(=O)O (stereo not given) [NAFRONYL OXALATE]

# Settings: human gut metagenome, 24 h, 2 µM
# Remark: another data set of the same source
row,Bacterial Biotransformation,SMILES
1,Compound metabolized,CCCc1nc2c(C)cc(-c3nc4ccccc4n3C)cc2n1Cc1ccc(-c2ccccc2C(=O)O)cc1
2,Compound metabolized,CCN(CC)CCOC(=O)C(Cc1cccc2ccccc12)CC1CCCO1.O=C(O)C(=O)O (stereo not given) [NAFRONYL OXALATE]

# Experiment: as §1, with “Z-011” for “WLS-039”, “mouse” for “human”, “ERS12561811” for “ERS12561746”
# Settings: 2 µM
row,Bacterial Biotransformation,SMILES
1,Compound metabolized,CCCc1nc2c(C)cc(-c3nc4ccccc4n3C)cc2n1Cc1ccc(-c2ccccc2C(=O)O)cc1
2,Compound NOT metabolized,CCN(CC)CCOC(=O)C(Cc1cccc2ccccc12)CC1CCCO1.O=C(O)C(=O)O (stereo not given) [NAFRONYL OXALATE]

# Experiment: as §1, with “Z-025” for “WLS-039”, “rabbit” for “human”, “ERS12561824” for “ERS12561746”
# Settings: 2 µM
row,Bacterial Biotransformation,SMILES
1,Compound metabolized,CCCc1nc2c(C)cc(-c3nc4ccccc4n3C)cc2n1Cc1ccc(-c2ccccc2C(=O)O)cc1
2,Compound NOT metabolized,CCN(CC)CCOC(=O)C(Cc1cccc2ccccc12)CC1CCCO1.O=C(O)C(=O)O (stereo not given) [NAFRONYL OXALATE]

# Settings: human gut metagenome, 24 h, 2 µM
# Remark: another data set of the same source
row,Bacterial Biotransformation,SMILES
1,Compound metabolized,CCCc1nc2c(C)cc(-c3nc4ccccc4n3C)cc2n1Cc1ccc(-c2ccccc2C(=O)O)cc1
2,Compound NOT metabolized,CCN(CC)CCOC(=O)C(Cc1cccc2ccccc12)CC1CCCO1.O=C(O)C(=O)O (stereo not given) [NAFRONYL OXALATE]

# Experiment: as §1, with “Z-021” for “WLS-039”, “to” for “to human gut”, “ERS12561820” for “ERS12561746”
# Settings: 2 µM
row,Bacterial Biotransformation,SMILES
1,Compound metabolized,CCCc1nc2c(C)cc(-c3nc4ccccc4n3C)cc2n1Cc1ccc(-c2ccccc2C(=O)O)cc1
2,Compound metabolized,CCN(CC)CCOC(=O)C(Cc1cccc2ccccc12)CC1CCCO1.O=C(O)C(=O)O (stereo not given) [NAFRONYL OXALATE]

# Settings: human gut metagenome, 24 h, 2 µM
# Remark: another data set of the same source
row,Bacterial Biotransformation,SMILES
1,Compound metabolized,CCCc1nc2c(C)cc(-c3nc4ccccc4n3C)cc2n1Cc1ccc(-c2ccccc2C(=O)O)cc1
2,Compound metabolized,CCN(CC)CCOC(=O)C(Cc1cccc2ccccc12)CC1CCCO1.O=C(O)C(=O)O (stereo not given) [NAFRONYL OXALATE]
